GI50 and TGI data for nine molecules are collected here from PubChem BioAssay (NCI).

Usually GI50 stands for the concentration at which growth is held to half of that of the control. The term TGI denotes the concentration at which net growth stops. Lower therefore signals greater sensitivity of the cells.

Molecules are shown by their SMILES.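 Test compounds were applied to cells in 96-well plates for 48 hours at 5 doses. At the GI50, growth is halved. TGI denotes the concentration required for complete inhibition of growth.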 Where only a bound is given, the exact number is not on record here.

Among the test systems are 786-0 renal; SK-OV-3 ovarian; A498 renal; SR leukemia; NCI-H460 lung; HCT-15 colon; M14 melanoma; COLO 205 colon; MDA-MB-231 breast; NCI-H23 lung.
What all share (experiment): DTP human tumour cell line panel, 48 h

As for `CCCCCCCCCCCC1=NC(C)(C)CN1C(C)(C)CO`, the GI50 was 1.93 µM with 786-0 renal; 3.8 µM with SK-OV-3 ovarian; 5.76 µM with A498 renal; 3.07 µM in the test with SR leukemia; 1.55 µM in the test with NCI-H460 lung; 2.15 µM with HCT-15 colon. Further, the GI50 with M14 melanoma was 1.79 µM; with COLO 205 colon, 1.59 µM; in the test on MDA-MB-231 breast, 2.1 µM; in the test with NCI-H23 lung, 2.11 µM. Moreover, the TGI in the test on 786-0 renal came out at 3.89 µM; in the test on SK-OV-3 ovarian it was 12.4 µM; in the test with A498 renal, 20.8 µM; with SR leukemia, 12.5 µM; in the test with NCI-H460 lung, 2.91 µM; in the test on HCT-15 colon it was 4.74 µM. For the same molecule, the TGI with M14 melanoma was 3.4 µM; in the test on COLO 205 colon it was 3 µM; in the test with MDA-MB-231 breast, 4.48 µM; with NCI-H23 lung, 4.67 µM.
As to `COc1cc(-c2nc3ccccc3s2)ccc1OCCCCOc1cc2c(cc1OC)C(=O)N1CCC[C@H]1C=N2`, the GI50 is 0.9 µM with 786-0 renal; 2.66 µM in the test on SK-OV-3 ovarian; 1.6 µM with A498 renal; 0.212 µM in the test with SR leukemia; 1 µM in the test on NCI-H460 lung; 1.7 µM in the test on HCT-15 colon. For the same molecule, the GI50 in the test with M14 melanoma is 1.38 µM; in the test with COLO 205 colon it was 0.697 µM; in the test with MDA-MB-231 breast, 0.911 µM; in the test with NCI-H23 lung, 1.47 µM. In addition, the TGI with 786-0 renal amounted to 2.17 µM; in the test with SK-OV-3 ovarian, 5.44 µM; in the test on A498 renal it was 4.16 µM; in the test with SR leukemia, 0.785 µM; with NCI-H460 lung, 3.4 µM; in the test on HCT-15 colon, 4.46 µM. Also, the TGI came out at 2.92 µM in the test on M14 melanoma, 2.26 µM with COLO 205 colon, 3.09 µM in the test on MDA-MB-231 breast and 4.72 µM in the test with NCI-H23 lung.
In the case of `CCOC(=O)N1C/C(=C\c2ccccc2)C(=O)/C(=C/c2ccccc2)C1`, the TGI was found to be 9.15 µM in the test with 786-0 renal; 27.8 µM with SK-OV-3 ovarian; 34.2 µM in the test with A498 renal; 4.05 µM in the test on SR leukemia; 42.4 µM in the test on NCI-H460 lung; 5.74 µM in the test on HCT-15 colon. Further, the TGI in the test on M14 melanoma turned out to be 6.69 µM; in the test with COLO 205 colon, 11.6 µM; in the test with MDA-MB-231 breast it was 5.3 µM; with NCI-H23 lung, 11.4 µM.
As for `COC(C)(C)[C@@H](O)[C@H](O)C[C@H](C)C1=C2CC[C@@H]3[C@@]4(C)CC[C@@H](OC(C)=O)C(C)(C)[C@@H]4C[C@@H](OC4OC(COC(C)=O)C(O)C(O)C4O)[C@@]3(C)[C@]2(C)CC1` (some centres undefined), the GI50 in the test with 786-0 renal was 14.4 µM; in the test with A498 renal it was 14.2 µM; in the test on SR leukemia, 3.06 µM; in the test on NCI-H460 lung it was 9.06 µM; in the test with HCT-15 colon it was 11 µM; in the test on M14 melanoma, 12.4 µM. The figures for the GI50 in the test with COLO 205 colon, with MDA-MB-231 breast and in the test with NCI-H23 lung were 10.6 µM, 11.6 µM and 14.4 µM, respectively. Besides, the TGI in the test on 786-0 renal was 27.5 µM; in the test with SK-OV-3 ovarian, 28.7 µM; with A498 renal, 27.6 µM; with SR leukemia, 14.3 µM; in the test with NCI-H460 lung it was 25.5 µM; with HCT-15 colon it was 23.8 µM. Besides, the total growth inhibition concentration (TGI) in the test on M14 melanoma stood at 25.4 µM; in the test on COLO 205 colon, 22.8 µM; with MDA-MB-231 breast it was 23.8 µM; in the test with NCI-H23 lung, 27.4 µM.
As for `C#C[C@]1(O)CC[C@H]2[C@@H]3CC=C4c5sc(Nc6cc(F)ccc6F)nc5CC[C@]4(C)[C@H]3CC[C@@]21C`, the GI50 in the test on 786-0 renal is 0.415 µM; in the test on SK-OV-3 ovarian, 2.78 µM; with A498 renal, 1.37 µM; with SR leukemia, 0.568 µM; in the test with NCI-H460 lung it was 1.95 µM; with HCT-15 colon, 1.53 µM. In addition, the GI50 was 1.28 µM in the test with M14 melanoma, 2.05 µM with COLO 205 colon, 1.82 µM in the test with MDA-MB-231 breast and 1.78 µM in the test on NCI-H23 lung. Besides, the TGI was 1.84 µM in the test on 786-0 renal; 10.2 µM with SK-OV-3 ovarian; 2.76 µM in the test on A498 renal; over 100 µM in the test with SR leukemia; 4.14 µM in the test with NCI-H460 lung; 4.84 µM in the test on HCT-15 colon. In addition, the TGI in the test on M14 melanoma is 2.77 µM; with COLO 205 colon, 4.81 µM; in the test on MDA-MB-231 breast, 4.09 µM; with NCI-H23 lung, 4.38 µM.
For `CSC(=S)Nc1cc(C)cc(C)n1`, the TGI in the test on 786-0 renal was over 31.6 µM; in the test with SK-OV-3 ovarian it was over 31.6 µM; in the test with A498 renal, over 100 µM; in the test on SR leukemia it was over 10 µM; in the test on NCI-H460 lung, over 31.6 µM; in the test on HCT-15 colon it was over 31.6 µM. The TGI in the test on M14 melanoma was over 31.6 µM; with COLO 205 colon, over 31.6 µM; in the test with MDA-MB-231 breast, over 100 µM; with NCI-H23 lung, over 31.6 µM.
For `CN1C(=O)c2ccc3ccccc3c2C1=O`, the TGI in the test with 786-0 renal, with SK-OV-3 ovarian, in the test on A498 renal, in the test on SR leukemia, in the test with NCI-H460 lung and with HCT-15 colon was over 100 µM throughout. The TGI with M14 melanoma, in the test with COLO 205 colon, in the test on MDA-MB-231 breast and with NCI-H23 lung was over 100 µM in each case.
`Cn1cnc(N)c(N=O)c1=O`: the TGI in the test with 786-0 renal, with SK-OV-3 ovarian, in the test with A498 renal, in the test with SR leukemia, with NCI-H460 lung and in the test on HCT-15 colon was over 10 µM throughout. Moreover, the TGI in the test with M14 melanoma, with COLO 205 colon, with MDA-MB-231 breast and with NCI-H23 lung was over 10 µM in each case.
Regarding `CCCCNNC(=O)c1ccc(Br)cc1`, the GI50 is 11.8 µM with 786-0 renal; 8.54 µM in the test on SK-OV-3 ovarian; 0.364 µM with A498 renal; 2.76 µM in the test with SR leukemia; 2.97 µM in the test with NCI-H460 lung; 6.87 µM with HCT-15 colon. Further, the GI50 was 2.46 µM in the test with M14 melanoma, 2.21 µM in the test with COLO 205 colon, 9.03 µM with MDA-MB-231 breast and 6.77 µM in the test on NCI-H23 lung. Further, the TGI in the test on 786-0 renal is over 50 µM; in the test on SK-OV-3 ovarian it was over 50 µM; with A498 renal it was 3.41 µM; in the test with SR leukemia, over 50 µM; in the test on NCI-H460 lung it was over 50 µM; in the test on HCT-15 colon, over 50 µM. The TGI with M14 melanoma was over 50 µM; in the test on COLO 205 colon, 9.92 µM; in the test with MDA-MB-231 breast it was over 50 µM; with NCI-H23 lung, over 50 µM.
